The values below come from PubChem BioAssay (NCI).

Where “and” joins values, the source holds several entries; their conditions need not be identical. Identical values can stand only once.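 Cells were grown in 96-well plates and exposed to each compound for 48 hours at five concentrations; endpoints were interpolated linearly between bracketing concentrations, or set to the highest concentration if not reached. GI50 is the concentration that inhibits growth by half. TGI denotes the concentration required for complete inhibition of growth.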 Some results are limits rather than exact numbers.

Among the test systems are SN12C renal; HCT-116 colon; HCT-15 colon; SW-620 colon; OVCAR-8 ovarian; SK-MEL-2 melanoma; EKVX NSCLC; HT29 colon; A498 renal; HCC-2998 colon.
Test in all cases: DTP human tumour cell line panel, 48 h

For the compound `O=c1[nH]c(=O)n(C2CC(O)C(CO)O2)cc1Br` (stereo not given), the TGI in the assay with SN12C renal, in the assay on HCT-116 colon, in the assay on HCT-15 colon, in the assay on SW-620 colon, in the assay on OVCAR-8 ovarian and in the assay on SK-MEL-2 melanoma was more than 100 µM in each case. Also, the TGI in the assay with EKVX NSCLC, in the assay on HT29 colon, in the assay with A498 renal and in the assay on HCC-2998 colon was more than 100 µM throughout.
On to `NC(=O)/N=C/c1c(O)c2ccccc2oc1=O`, for which the concentration for total growth inhibition (TGI) in the assay with SN12C renal, in the assay with HCT-116 colon, in the assay with HCT-15 colon, in the assay with SW-620 colon, in the assay on OVCAR-8 ovarian and with SK-MEL-2 melanoma was more than 100 µM in each case. Besides, the TGI in the assay on EKVX NSCLC, in the assay with HT29 colon and in the assay on HCC-2998 colon was more than 100 µM in each case.
Regarding `Cn1c(=O)c2[nH]c(SC/C(=N/O)c3ccc(Br)cc3)nc2n(C)c1=O`, the GI50 (commonly the concentration giving 50% growth inhibition) was 3.19 µM in the assay with HCT-116 colon, more than 100 µM in the assay on SW-620 colon, 2.08 µM with SK-MEL-2 melanoma and 2.76 µM with EKVX NSCLC. Besides, the TGI (as a rule, the concentration at which net growth stops) was more than 100 µM in the assay on HCT-116 colon, more than 100 µM in the assay with SW-620 colon, 4.26 µM in the assay with SK-MEL-2 melanoma and more than 100 µM in the assay on EKVX NSCLC.
Turning to `O=S(O)c1cc(Cl)c(O)c(Cl)c1`, the TGI with SN12C renal, in the assay on HCT-116 colon, in the assay with SK-MEL-2 melanoma, with EKVX NSCLC, in the assay with HT29 colon and with A498 renal was more than 100 µM each time. Moreover, in the assay on HCC-2998 colon, the TGI is more than 100 µM.
As to `O=C1C(=C([O-])c2ccccc2)C(=O)c2ccccc21.O=C1C(=C([O-])c2ccccc2)C(=O)c2ccccc21.[Ni+2]`, the GI50 was 51.3 µM in the assay with SN12C renal; 47.2 µM in the assay on HCT-15 colon; 58.9 µM with SW-620 colon; 48.1 µM with OVCAR-8 ovarian; 98 µM in the assay on SK-MEL-2 melanoma; 44.4 µM in the assay on EKVX NSCLC. Moreover, the GI50 with HT29 colon is 77 µM; in the assay on HCC-2998 colon, 58.9 µM. The TGI in the assay on SN12C renal, with HCT-15 colon, with SW-620 colon, with OVCAR-8 ovarian, in the assay with SK-MEL-2 melanoma and with EKVX NSCLC was more than 100 µM throughout. Besides, the concentration for total growth inhibition (TGI) in the assay with HT29 colon and with HCC-2998 colon was more than 100 µM throughout.
For the compound `COc1ccc2c3/c(=C\c4ccc(N(C)C)cc4)c4ccccc4n3[n+](C)c2c1`, the GI50 in the assay with HCT-116 colon was 0.0533 µM; with HCT-15 colon, 0.475 µM; with SW-620 colon it was 0.0438 µM; in the assay with OVCAR-8 ovarian, 0.0474 µM; with EKVX NSCLC, 0.11 µM; with HT29 colon it was 0.123 µM. Moreover, the figures for the GI50 with A498 renal and in the assay on HCC-2998 colon were 0.371 µM and less than 0.0378 µM, respectively. For the same compound, the TGI in the assay with HCT-116 colon was more than 100 µM; in the assay with HCT-15 colon it was more than 100 µM; in the assay on SW-620 colon, more than 100 µM; with OVCAR-8 ovarian, 2.33 µM; with EKVX NSCLC, 4.16 µM; in the assay with A498 renal, 7.37 µM. Moreover, the TGI in the assay on HCC-2998 colon was found to be 0.31 µM.
As for `CC1OC(O[C@@H]2C=C3CC[C@@H]4[C@H](CC[C@]5(C)[C@@H](c6ccc(=O)oc6)CC[C@]45O)[C@@]3(C)CC2)C(O)C(OC2OC(CO)C(O)C(O)C2O)C1O` (stereo not given in full), the GI50 with HCT-15 colon was 0.000532 µM; in the assay with SK-MEL-2 melanoma it was 0.000866 µM; in the assay with EKVX NSCLC, 0.000339 µM. The total growth inhibition concentration (TGI) with HCT-15 colon is 0.116 µM and 0.0443 µM; with SW-620 colon, 0.0348 µM and 0.0288 µM; in the assay with OVCAR-8 ovarian it was 0.0162 µM and 0.0299 µM; in the assay on SK-MEL-2 melanoma, 0.0409 µM and 0.0257 µM; with EKVX NSCLC, 0.00534 µM and 0.0254 µM; with HT29 colon, 0.0878 µM and 0.349 µM. Besides, the TGI came out at 0.0825 µM in the assay with A498 renal and 0.0422 µM with HCC-2998 colon.
For the compound `COC(=O)c1c(O)ccc2c1c1c(n2Cc2cccc(C)c2)C(=O)c2ccccc2C1`, the TGI with SN12C renal was 27.6 µM; in the assay with HCT-116 colon, 16.7 µM; in the assay with HCT-15 colon, more than 75 µM; with SW-620 colon, more than 75 µM; in the assay on OVCAR-8 ovarian it was more than 75 µM; with SK-MEL-2 melanoma, more than 75 µM. The values for the TGI in the assay on EKVX NSCLC, in the assay on HT29 colon and in the assay with A498 renal were 10.4 µM, 19.9 µM and more than 75 µM, respectively.
Regarding `COc1cc(O)c(Cc2ccccc2O)c(O)c1C(=O)CCc1ccccc1`, the TGI with SN12C renal came out at 17 µM; with HCT-116 colon, 13.7 µM; with HCT-15 colon it was 19.9 µM; in the assay on SW-620 colon, 29.4 µM; with OVCAR-8 ovarian, 28.1 µM; with SK-MEL-2 melanoma, 12.8 µM. Besides, the TGI came out at 22.5 µM in the assay on EKVX NSCLC, 33.4 µM with HT29 colon, 14.4 µM in the assay on A498 renal and 19.8 µM in the assay with HCC-2998 colon.
